Test results taken from patent US11225512B2, “Compositions and methods for ceramide-elevating therapeutic strategies” (University of New Hampshire, priority 2017, dated 2022).

Assays:
[1] = test system: ceramide neutralization; assay: Decitabine treatment of FLT3^ITD transgenic mice, gene expression by qRT-PCR; format: in vivo
Experimental: Decitabine treatment downregulates ceramide neutralization in FLT3^ITD transgenic mice while augmenting gdf1 expression. 8-12 week old mice harboring an internal tandem duplication in the Flt3 gene were treated with the hypomethylating agent, decitabine, at 0.2 mg/kg, 3 times weekly, for 6 weeks. Results were generated using qRT-PCR and normalized to housekeeping genes (Actb, RpII, Tbp). […] Treatment with decitabine reversed ugcg expression and led to downregulation of cers1 as compared to control mice. […] As expected, other related genes are also affected by decitabine treatment.
Hypomethylating Treatment Reverses the Effect of Leukemogenic Transgenes on Ceramide Detoxification. Myeloid hematological malignancies such as AML and myelodysplastic syndrome (MDS) are frequently treated with hypomethylating agents such as decitabine. In particular, treatment and management of MDS commonly utilizes these strategies to attempt to prevent the transformation of this bone marrow failure-like condition to AML. In this experiment, we utilized aged FLT3^ITD transgenic mice treated with/without decitabine and monitored the changes to the expression of genes in the bone marrow that regulate the production of bioactive sphingolipids.

[2] = test system: AML cell lines (HL-60, Kasumi-1 and Kasumi-3); assay: Gdf1 treatment of AML cell lines, gene expression by qRT-PCR; format: cell-based; conditions: 50 ng/mL, 24 hours; HL-60, Kasumi-1, Kasumi-3; compared to untreated counterparts
Experimental: Gdf1 treatment of AML cell lines triggers downregulation of ceramide neutralization pathways. AML cell lines (HL-60, Kasumi-1 and Kasumi-3), were treated with recombinant human gdf1 at a concentration of 50 ng/mL for 24 hours. Results were obtained via qRT-PCR and compared to housekeeping genes (Actb, RpII).

[3] = test system: hematopoietic progenitor cells; assay: Gdf1 treatment of bone marrow, flow cytometry immunophenotyping of LT-HSC and MPP; format: cell-based; conditions: 50 ng/mL, 24 hours; bone marrow of hybrid mice
Experimental: Gdf1 treatment promotes quiescence exit of hematopoietic progenitor cells. Bone marrow of hybrid mice was treated with human recombinant Gdf1 at a concentration of 50 ng/mL for 24 hours. Flow cytometry was used in immunophenotyping cells into subpopulations of long-term hematopoietic stem cells (LT-HSC) and multipotent progenitor cells (MPP). LT-HSCs were defined as Lin−, C-kit+, Sca-1+, CD150+, CD48−. MPPs were defined as Lin−, C-kit+, Sca-1+, CD150−, CD48−. Quiescent cells were defined as CD34+.

| Molecule | gdf1 expression ([1]; FLT3^ITD mice, decitabine 0.2 mg/kg, 3 times weekly, 6 weeks) | cers1 expression ([1]; FLT3^ITD mice, decitabine 0.2 mg/kg, 3 times weekly, 6 weeks, compared to control mice) | ugcg expression ([1]; FLT3^ITD mice, decitabine 0.2 mg/kg, 3 times weekly, 6 weeks, qRT-PCR normalized to Actb, RpII, Tbp) | relationship between gdf1 and either ugcg or sgms1 expression ([1]; bone marrow of aged FLT3^ITD transgenic mice treated with/without decitabine) | cers1 expression [2] | ugcg expression [2] | cells bearing the CD34 marker (quiescent cells) in LT-HSC and MPP populations [3] | population of MPPs in the overall pool of analyzed cells [3] |
| --- | --- | --- | --- | --- | --- | --- | --- | --- |
| Nc1ncn([C@H]2C[C@H](O)[C@@H](CO)O2)c(=O)n1 [decitabine, 5-aza-2′-deoxycytidine] | upregulated | downregulation | reversed | inverse relationship | – | – | – | – |
| Gdf1: Recombinant human Growth Differentiation Factor 1, a BMP family member and TGF-beta signaling pathway intermediate (protein, listed as Homo sapiens) MPPPQQGPCGHHLLLLLALLLPSLPLTRAPVPPGPAAALLQALGLRDEPQGAPRLRPVPPVMWRLFRRRDPQETRSGSRRTSPGVTLQPCHVEELGVAGNIVRHIPDRGAPTRASEPASAAGHCPEWTVVFDLSAVEPAERPSRARLELRFAAAAAAAPEGGWELSVAQAGQGAGADPGPVLLRQLVPALGPPVRAELLGAAWARNASWPRSLRLALALRPRAPAACARLAEASLLLVTLDPRLCHPLARPRRDAEPVLGGGPGGACRARRLYVSFREVGWHRWVIAPRGFLANYCQGQCALPVALSGSGGPPALNHAVLRALMHAAAPGAADLPCCVPARLSPISVLFFDNSDNVVLRQYEDMVVDECGCR | – | – | – | – | downregulated | downregulated | decrease | increase |
